{
  "source": "paper PMC5775429",
  "about": "“LY2087101 and dFBr share transmembrane binding sites in the (α4)3(β2)2 Nicotinic Acetylcholine Receptor” (Scientific Reports, 2018)",
  "key": {"[1]": {"target": "T1, (α4C254S)3(β2)2 nAChR (Homo sapiens, UniProt P17787+P43681, C254S)", "T1 construct": "expressed in transfected cells; host or cells: Xenopus laevis oocytes injected with cRNA", "T1 sequence (P43681 29-627 C254S limits assumed)": "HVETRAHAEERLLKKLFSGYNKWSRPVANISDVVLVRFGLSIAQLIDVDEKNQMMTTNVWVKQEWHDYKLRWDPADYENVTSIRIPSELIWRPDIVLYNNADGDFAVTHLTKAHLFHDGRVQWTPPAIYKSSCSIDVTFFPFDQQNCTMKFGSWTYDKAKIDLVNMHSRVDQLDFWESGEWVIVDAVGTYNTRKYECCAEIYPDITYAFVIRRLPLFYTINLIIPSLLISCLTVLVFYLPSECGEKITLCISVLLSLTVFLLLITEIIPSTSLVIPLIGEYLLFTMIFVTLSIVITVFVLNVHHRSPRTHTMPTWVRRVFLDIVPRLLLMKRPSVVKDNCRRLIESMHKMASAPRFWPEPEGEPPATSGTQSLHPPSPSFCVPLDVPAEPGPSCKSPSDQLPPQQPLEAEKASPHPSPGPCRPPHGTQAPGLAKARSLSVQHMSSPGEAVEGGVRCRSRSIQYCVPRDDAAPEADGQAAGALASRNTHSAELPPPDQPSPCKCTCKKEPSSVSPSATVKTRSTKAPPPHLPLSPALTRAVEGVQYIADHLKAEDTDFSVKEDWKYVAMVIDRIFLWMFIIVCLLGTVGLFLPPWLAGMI", "T1 sequence (P17787 26-502)": "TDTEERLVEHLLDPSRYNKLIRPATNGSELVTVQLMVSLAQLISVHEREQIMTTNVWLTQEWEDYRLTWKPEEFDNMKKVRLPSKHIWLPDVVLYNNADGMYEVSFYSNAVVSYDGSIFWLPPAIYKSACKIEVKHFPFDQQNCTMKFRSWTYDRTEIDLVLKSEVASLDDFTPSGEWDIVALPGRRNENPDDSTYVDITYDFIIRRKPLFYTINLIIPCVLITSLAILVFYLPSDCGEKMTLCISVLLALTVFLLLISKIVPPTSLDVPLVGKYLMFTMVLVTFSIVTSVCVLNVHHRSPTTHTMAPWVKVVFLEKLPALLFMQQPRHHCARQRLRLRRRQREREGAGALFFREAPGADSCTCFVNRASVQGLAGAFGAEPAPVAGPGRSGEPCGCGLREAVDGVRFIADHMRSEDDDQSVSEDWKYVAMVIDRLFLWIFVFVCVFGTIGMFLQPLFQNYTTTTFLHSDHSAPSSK", "assay": "Two-electrode voltage-clamp of ACh-induced currents in Xenopus oocytes", "type": "cell-based", "protocol": "(§1) For amino acid substitutions within the α4 nAChR subunit, point mutations were introduced into pSP64ployA plasmid with cDNA encoding for human α4 nAChR subunit with mutagenic primer pairs using the Quick Change II Site-Directed Mutagenesis Kit (Agilent Technologies) then confirmed by DNA sequencing (GENEWIZ, LLC, South Plainfield, NJ). cRNA transcripts suitable for oocyte expression were prepared in vitro from linearized plasmids [α3 (BamH1), α4 (AseI), β2 (PvuII), β4 (XhoI)] using mMESSAGE mMACHINE high yield capped RNA transcription kits (Ambion) and purified on NucAway Spin column (Invitrogen). cRNA concentration was determined by spectroscopy (Concentration (ug/ul) = Abs260 * 40), aliquoted and stored at −80 °C until used.\n(§2) Ovarian lobules were surgically harvested from oocytes-positive female Xenopus laevis (NASCO, Fort Atkinson, WI) according to an animal use protocol approved by the Texas A&M Health Sciences Center Institutional Animals Care and Use Committee. The Texas A&M Health Sciences Center Research Facility is registered as an animal research facility with the United States Department of Agriculture and is fully accredited by the American Association for Accreditation of Laboratory Animal Care (AAALAC). For oocytes defolliculation, ovarian lobes were treated with 3 mg/ml collagenase type 2 (Worthington Biomedical, Lakewood, NJ) in Ca + 2-free buffer (85 mM NaCl, 2.5 mM KCl, 1 mM MgCl2, 5 mM HEPES, pH 7.6). Collagenase treatment was allowed to proceed for 3 hours at room temperature with gentle shaking then oocytes were washed several times with buffer to remove collagenase then with ND96-gentamicine buffer. Healthy Stage V and VI oocytes were visually selected and maintained at 18 °C in modified ND96-gentamicine buffer (96 mM NaCl, 2 mM KCl, 1.8 mM CaCl2, 1 mM MgCl2, 5 mM HEPES, 50 µg/ml gentamicin, pH 7.6). Oocytes were injected with 50–100 ng of the desired nAChR subunits cRNA mix at ratios of 8α:1β or 1α:8β to express nAChRs with subunit stoichiometries of 3α:2β (low agonist sensitivity) or 2α:3β (high agonist sensitivity), respectively.\n(§3) Oocytes were continuously perfused with recording buffer (100 mM NaCl, 2 mM KCl, 1 mM CaCl2, 0.8 mM MgCl2, 1 mM EGTA, 10 mM Hepes, pH 7.5) except during periods of drug applications."}, "[2]": {"target": "(α4E308V)3(β2)2 nAChR (Homo sapiens, UniProt P43681, E308V)", "sequence (P43681 29-627 E308V limits assumed)": "as the sequence (P43681 29-627 C254S limits assumed) above, with S226C, E280V counted along it", "sequence (P17787 26-502 partner)": "as the sequence (P17787 26-502) above", "assay": "Two-electrode voltage-clamp of ACh-induced currents in Xenopus oocytes", "type": "cell-based", "protocol": "as §1, §2, §3"}, "[3]": {"target": "T2, (α4F312V)3(β2)2 nAChR (Homo sapiens, UniProt P17787+P43681, F312V)", "T2 construct": "expressed in transfected cells; host or cells: Xenopus laevis oocytes injected with cRNA", "T2 sequence (P43681 29-627 F312V limits assumed)": "as the sequence (P43681 29-627 C254S limits assumed) above, with S226C, F284V counted along it", "T2 sequence (P17787 26-502)": "as the sequence (P17787 26-502) above", "assay": "Two-electrode voltage-clamp of ACh-induced currents in Xenopus oocytes", "type": "cell-based", "protocol": "as §1, §2, §3"}, "[4]": {"target": "T3, (α4F606Y)3(β2)2 nAChR (Homo sapiens, UniProt P17787+P43681, F606Y)", "T3 construct": "expressed in transfected cells; host or cells: Xenopus laevis oocytes injected with cRNA", "T3 sequence (P43681 29-627 F606Y limits assumed)": "as the sequence (P43681 29-627 C254S limits assumed) above, with S226C, F578Y counted along it", "T3 sequence (P17787 26-502)": "as the sequence (P17787 26-502) above", "assay": "Two-electrode voltage-clamp of ACh-induced currents in Xenopus oocytes", "type": "cell-based", "protocol": "as §1, §2, §3"}, "[5]": {"target": "T4, (α4I608L)3(β2)2 nAChR (Homo sapiens, UniProt P17787+P43681, I608L)", "T4 construct": "expressed in transfected cells; host or cells: Xenopus laevis oocytes injected with cRNA", "T4 sequence (P43681 29-627 I608L limits assumed)": "as the sequence (P43681 29-627 C254S limits assumed) above, with S226C, I580L counted along it", "T4 sequence (P17787 26-502)": "as the sequence (P17787 26-502) above", "assay": "Two-electrode voltage-clamp of ACh-induced currents in Xenopus oocytes", "type": "cell-based", "details": "10 µM ACh + 1 µM PAM vs 10 µM ACh alone", "protocol": "as §1, §2, §3"}, "[6]": {"target": "T5, (α4L310F)3(β2)2 nAChR (Homo sapiens, UniProt P17787+P43681, L310F)", "T5 construct": "expressed in transfected cells; host or cells: Xenopus laevis oocytes injected with cRNA", "T5 sequence (P43681 29-627 L310F limits assumed)": "as the sequence (P43681 29-627 C254S limits assumed) above, with S226C, L282F counted along it", "T5 sequence (P17787 26-502)": "as the sequence (P17787 26-502) above", "assay": "Two-electrode voltage-clamp of ACh-induced currents in Xenopus oocytes", "type": "cell-based", "details": "10 µM ACh + 1 µM PAM vs 10 µM ACh alone", "protocol": "as §1, §2, §3"}, "[7]": {"target": "T6, (α4M605I)3(β2)2 nAChR (Homo sapiens, UniProt P17787+P43681, M605I)", "T6 construct": "expressed in transfected cells; host or cells: Xenopus laevis oocytes injected with cRNA", "T6 sequence (P43681 29-627 M605I limits assumed)": "as the sequence (P43681 29-627 C254S limits assumed) above, with S226C, M577I counted along it", "T6 sequence (P17787 26-502)": "as the sequence (P17787 26-502) above", "assay": "Two-electrode voltage-clamp of ACh-induced currents in Xenopus oocytes", "type": "cell-based", "details": "10 µM ACh + 1 µM PAM vs 10 µM ACh alone", "protocol": "as §1, §2, §3"}, "[8]": {"target": "T7, (α4M605V)3(β2)2 nAChR (Homo sapiens, UniProt P17787+P43681, M605V)", "T7 construct": "expressed in transfected cells; host or cells: Xenopus laevis oocytes injected with cRNA", "T7 sequence (P43681 29-627 M605V limits assumed)": "as the sequence (P43681 29-627 C254S limits assumed) above, with S226C, M577V counted along it", "T7 sequence (P17787 26-502)": "as the sequence (P17787 26-502) above", "assay": "Two-electrode voltage-clamp of ACh-induced currents in Xenopus oocytes", "type": "cell-based", "details": "10 µM ACh + 1 µM PAM vs 10 µM ACh alone", "protocol": "as §1, §2, §3"}, "[9]": {"target": "(α4S258M)3(β2)2 nAChR (Homo sapiens, UniProt P43681, S258M)", "sequence (P43681 29-627 S258M limits assumed)": "as the sequence (P43681 29-627 C254S limits assumed) above, with S226C, S230M counted along it", "sequence (P17787 26-502 partner)": "as the sequence (P17787 26-502) above", "assay": "Two-electrode voltage-clamp of ACh-induced currents in Xenopus oocytes", "type": "cell-based", "details": "10 µM ACh + 1 µM PAM vs 10 µM ACh alone", "protocol": "as §1, §2, §3"}, "[10]": {"target": "T8, (α4S284G)3(β2)2 nAChR (Homo sapiens, UniProt P17787+P43681, S284G)", "T8 construct": "expressed in transfected cells; host or cells: Xenopus laevis oocytes injected with cRNA", "T8 sequence (P43681 29-627 S284G limits assumed)": "as the sequence (P43681 29-627 C254S limits assumed) above, with S226C, S256G counted along it", "T8 sequence (P17787 26-502, stated change not applied)": "as the sequence (P17787 26-502) above", "assay": "Two-electrode voltage-clamp of ACh-induced currents in Xenopus oocytes", "type": "cell-based", "details": "10 µM ACh + 1 µM PAM vs 10 µM ACh alone", "protocol": "as §1, §2, §3"}, "[11]": {"target": "T9, (α4T261D)3(β2)2 nAChR (Homo sapiens, UniProt P17787+P43681, T261D)", "T9 construct": "expressed in transfected cells; host or cells: Xenopus laevis oocytes injected with cRNA", "T9 sequence (P43681 29-627 T261D limits assumed)": "as the sequence (P43681 29-627 C254S limits assumed) above, with S226C, T233D counted along it", "T9 sequence (P17787 26-502)": "as the sequence (P17787 26-502) above", "assay": "Two-electrode voltage-clamp of ACh-induced currents in Xenopus oocytes", "type": "cell-based", "details": "10 µM ACh + 1 µM PAM vs 10 µM ACh alone", "protocol": "as §1, §2, §3"}, "[12]": {"target": "T10, (α4T313C)3(β2)2 nAChR (Homo sapiens, UniProt P17787+P43681, T313C)", "T10 construct": "expressed in transfected cells; host or cells: Xenopus laevis oocytes injected with cRNA", "T10 sequence (P43681 29-627 T313C limits assumed)": "as the sequence (P43681 29-627 C254S limits assumed) above, with S226C, T285C counted along it", "T10 sequence (P17787 26-502)": "as the sequence (P17787 26-502) above", "assay": "Two-electrode voltage-clamp of ACh-induced currents in Xenopus oocytes", "type": "cell-based", "details": "10 µM ACh + 1 µM PAM vs 10 µM ACh alone", "protocol": "as §1, §2, §3"}, "[13]": {"target": "(α4E92I)3(β2)2 nAChR (Homo sapiens, UniProt P43681, E92I)", "sequence (P43681 29-627 E92I limits assumed)": "as the sequence (P43681 29-627 C254S limits assumed) above, with E64I, S226C counted along it", "sequence (P17787 26-502 partner)": "as the sequence (P17787 26-502) above", "set-up": "method as in PMID 28446611", "details": "10 µM ACh + 1 µM dFBr vs 10 µM ACh alone; data reported previously ref 29; cited from earlier work"}, "[14]": {"target": "(α4H142L)3(β2)2 nAChR (Homo sapiens, UniProt P43681, H142L)", "sequence (P43681 29-627 H142L limits assumed)": "as the sequence (P43681 29-627 C254S limits assumed) above, with H114L, S226C counted along it", "sequence (P17787 26-502 partner)": "as the sequence (P17787 26-502) above", "set-up": "method as in PMID 28446611", "details": "10 µM ACh + 1 µM dFBr vs 10 µM ACh alone; data reported previously ref 29; cited from earlier work"}, "[15]": {"details": "10 µM ACh + 1 µM PAM vs 10 µM ACh alone"}, "[16]": {"details": "ACh concentration-response curve, normalized to 1 mM ACh alone"}},
  "note": "Where “and” joins values, the source holds several entries; their conditions need not be identical. Equal values may be shown once. Marks after values point to notes of the source that are not given here.",
  "data": [
    {"smiles": "C=CC(C)(C)c1[nH]c2cc(Br)ccc2c1CCNC", "note": "[dFBr]", "values": [
      {"measurement": "R, potentiation ratio (PR)", "setting": "[1]; [15]", "value": "3.6 ± 0.4"},
      {"measurement": "ACh Imax in the presence of 1 µM dFBr", "setting": "[1]; [16]", "value": "190 ± 08", "unit": "%"},
      {"measurement": "dFBr potentiation h (Hill coefficient)", "setting": "[1]; co-applied with 10 μM ACh", "value": "0.8 ± 0.1"},
      {"measurement": "dFBr potentiation Imax", "setting": "[1]; normalized to 10 µM ACh alone", "value": "430 ± 31", "unit": "%"},
      {"measurement": "EC50", "setting": "[1]; read-out: dFBr potentiation EC50", "value": "1500 ± 500", "unit": "nM"},
      {"measurement": "R, potentiation ratio (PR)", "setting": "[2]; [15]", "value": "1.0 and 1.0 ± 0.1"},
      {"measurement": "ACh Imax in the presence of 1 µM dFBr", "setting": "[2]; [16]", "value": "110 ± 06", "unit": "%"},
      {"measurement": "dFBr concentration-dependent potentiation of ACh-current responses", "setting": "[2]; dFBr up to 10 µM, 10 μM ACh", "value": "did not potentiate"},
      {"measurement": "inhibition at 10 µM", "setting": "[2]; read-out: inhibition of ACh-current response at 10 μM dFBr", "value": "~45", "unit": "%"},
      {"measurement": "R, potentiation ratio (PR)", "setting": "[3]; [15]", "value": "1.2 and ~ 1.2 and 1.2 ± 0.1"},
      {"measurement": "dFBr concentration-dependent potentiation of ACh-current responses", "setting": "[3]; dFBr up to 10 µM, 10 μM ACh", "value": "did not potentiate"},
      {"measurement": "R, potentiation ratio (PR)", "setting": "[4]; [15]", "value": "3.1 ± 0.4"},
      {"measurement": "ACh Imax in the presence of 1 µM dFBr", "setting": "[4]; [16]", "value": "159 ± 07", "unit": "%"},
      {"measurement": "R, potentiation ratio (PR)", "setting": "[5]", "value": "5.4 ± 0.4"},
      {"measurement": "R, potentiation ratio (PR)", "setting": "[6]", "value": "5.6 ± 0.3"},
      {"measurement": "R, potentiation ratio (PR)", "setting": "[7]", "value": "4.5 ± 0.3"},
      {"measurement": "R, potentiation ratio (PR)", "setting": "[8]", "value": "5.3 ± 1.2"},
      {"measurement": "R, potentiation ratio (PR)", "setting": "[9]", "value": "5.0 ± 0.5"},
      {"measurement": "R, potentiation ratio (PR)", "setting": "[10]", "value": "2.8 ± 0.4"},
      {"measurement": "R, potentiation ratio (PR)", "setting": "[11]", "value": "~ 2.1 and 2.1 ± 0.1"},
      {"measurement": "R, potentiation ratio (PR)", "setting": "[12]", "value": "3.9 ± 0.4"},
      {"measurement": "R, potentiation ratio (PR)", "setting": "[13]", "value": "9.3 ± 1.8^a"},
      {"measurement": "R, potentiation ratio (PR)", "setting": "[14]", "value": "8.1 ± 0.6^a"}
    ]}
  ]
}
